Assay [1] addresses T1, system Xc^− (Homo sapiens, UniProt Q9UPY5).
T1 sequence (Q9UPY5 1-501): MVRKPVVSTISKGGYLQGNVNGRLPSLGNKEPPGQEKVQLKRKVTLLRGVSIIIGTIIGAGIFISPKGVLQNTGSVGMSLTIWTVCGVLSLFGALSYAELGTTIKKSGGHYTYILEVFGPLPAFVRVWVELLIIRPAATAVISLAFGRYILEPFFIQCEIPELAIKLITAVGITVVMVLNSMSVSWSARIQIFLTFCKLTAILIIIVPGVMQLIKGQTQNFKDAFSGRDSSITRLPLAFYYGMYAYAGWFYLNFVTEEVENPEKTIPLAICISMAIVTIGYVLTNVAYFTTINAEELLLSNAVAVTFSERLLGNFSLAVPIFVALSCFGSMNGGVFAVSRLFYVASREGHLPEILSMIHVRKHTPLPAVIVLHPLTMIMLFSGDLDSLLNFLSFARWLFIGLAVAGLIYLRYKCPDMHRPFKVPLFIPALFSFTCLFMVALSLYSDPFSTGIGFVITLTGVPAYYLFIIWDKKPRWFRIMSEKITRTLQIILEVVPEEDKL
T1 sequence (P08195 1-529 partner): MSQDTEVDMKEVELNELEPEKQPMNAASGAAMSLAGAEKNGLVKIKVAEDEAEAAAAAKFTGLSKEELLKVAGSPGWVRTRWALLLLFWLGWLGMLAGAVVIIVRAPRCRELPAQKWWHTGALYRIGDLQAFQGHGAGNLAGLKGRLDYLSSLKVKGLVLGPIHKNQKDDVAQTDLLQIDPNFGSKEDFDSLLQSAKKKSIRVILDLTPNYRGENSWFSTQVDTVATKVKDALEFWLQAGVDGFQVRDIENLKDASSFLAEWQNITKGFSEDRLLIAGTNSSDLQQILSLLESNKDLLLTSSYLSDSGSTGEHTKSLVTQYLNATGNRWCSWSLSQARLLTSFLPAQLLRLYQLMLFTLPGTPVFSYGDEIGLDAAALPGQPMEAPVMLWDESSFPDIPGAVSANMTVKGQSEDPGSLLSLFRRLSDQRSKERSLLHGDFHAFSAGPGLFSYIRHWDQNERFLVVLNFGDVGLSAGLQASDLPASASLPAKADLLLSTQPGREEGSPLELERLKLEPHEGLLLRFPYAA
Kind of assay: [^14C]L-Cystine uptake assay. Format: cell-based. Details: endogenous in cells; host or cells: H4 cells. The note with it: H4 cells, sodium-free HEPES buffer, 0.5 μM L-[14C]Cystine and 4.5 μM L-Cystine, 1 hour at 37° C.; read-out: pIC50 [^14C] L-Cystine uptake assay (converted). An outline of the steps: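 H4 cells at 5×10^4 cells/well in sodium-free HEPES buffer were preincubated 15 min with compounds (1% DMSO). Uptake of 0.5 μM [14C]L-cystine plus 4.5 μM unlabelled L-cystine ran 1 hour at 37° C on scintillating plates. IC50 was set between 1% DMSO and 50 μM Erastin controls and expressed as pIC50.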

Assay [2] concerns the target T1, system Xc^−. Nature of the assay: Cystine-induced glutamate release assay. The settings on record: H4 cells, sodium-free HEPES buffer, 50 μM L-Cystine, 2 hours, Amplex Red glutamate readout; read-out: pIC50 Cystine-induced glutamate release assay (converted). Set-up: endogenous in cells; host or cells: H4 cells. Format: cell-based. The gist of the method: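 H4 cells in sodium-free HEPES buffer (pH 7.4), 2 days after plating; glutamate release induced with 50 μM L-cystine plus compound (1% DMSO), 2 h at 37 °C. Supernatant glutamate measured by Amplex Red fluorescence; IC50/pIC50 derived between 1% DMSO and 50 μM erastin controls.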

Bounds are passed on as bounds.

Consider `Cc1nc(C#N)cc2c1-c1cccnc1CC(=O)N2CC(=O)Nc1ccc(C(F)(F)F)cc1` [#167, 2-(5-cyano-3-methyl-9-oxo-4,8,12-triazatricyclo[9.4.0.0^2,7]pentadeca-1(11),2(7),3,5,12,14-hexaen-8-yl)-N-[4-(trifluoromethyl)phenyl]acetamide], for which the IC50 on system Xc^− [1] was 15.8 to 39.8 nM; at system Xc^− [2], 39.8 to 100 nM.
For the molecule `Cc1cc2c(c(C)n1)-c1cccnc1CC(=O)N2CC(=O)Nc1ccc(C(F)(F)F)cc1` [#57, 2-(3,5-dimethyl-9-oxo-4,8,12-triazatricyclo[9.4.0.0^2,7]pentadeca-1(11),2(7),3,5,12,14-hexaen-8-yl)-N-[4-(trifluoromethyl)phenyl]acetamide], the IC50 at system Xc^− [1] and on system Xc^− [2] was 15.8 to 39.8 nM in each case.
`CC1C(=O)N(CC(=O)Nc2ccc(C(F)F)cc2)c2cc(N3CC[C@H]3CO)nc(F)c2-c2cccnc21` (stereo partly drawn) [#272, N-[4-(difluoromethyl)phenyl]-2-[3-fluoro-5-[(2S)-2-(hydroxymethyl)azetidin-1-yl]-10-methyl-9-oxo-4,8,12-triazatricyclo[9.4.0.0^2,7]pentadeca-1(15),2,4,6,11,13-hexaen-8-yl]acetamide]: the IC50 on system Xc^− [1] and at system Xc^− [2] was 15.8 to 39.8 nM throughout.
`Cc1cc2c(c(F)n1)-c1nccnc1C(C)C(=O)N2CC(=O)Nc1ccc(Cl)c(F)c1` (single isomer, unassigned) [#408, N-(4-chloro-3-fluoro-phenyl)-2-[15-fluoro-8,13-dimethyl-9-oxo-3,6,10,14-tetrazatricyclo[9.4.0.0^2,7]pentadeca-1(15),2,4,6,11,13-hexaen-10-yl]acetamide]: the IC50 at system Xc^− [1] and at system Xc^− [2] was 39.8 to 100 nM throughout.
In the case of `COc1cc2c(cn1)-c1cc(F)cnc1C(C)C(=O)N2CC(=O)Nc1ccc(Cl)c(F)c1` (single isomer, unassigned) [#410, N-(4-chloro-3-fluoro-phenyl)-2-[14-fluoro-5-methoxy-10-methyl-9-oxo-4,8,12-triazatricyclo[9.4.0.0^2,7]pentadeca-1(15),2(7),3,5,11,13-hexaen-8-yl]acetamide], the IC50 on system Xc^− [1] and on system Xc^− [2] was 15.8 to 39.8 nM throughout.
On to `Cc1cc2c(c(N)n1)-c1cccnc1CC(=O)N2CC(=O)Nc1ccc(C(F)(F)F)cc1` [#103, 2-(3-amino-5-methyl-9-oxo-4,8,12-triazatricyclo[9.4.0.0^2,7]pentadeca-1(11),2(7),3,5,12,14-hexaen-8-yl)-N-[4-(trifluoromethyl)phenyl]acetamide], for which the IC50 at system Xc^− [1] and at system Xc^− [2] was 100 to 501 nM each time.
For the molecule `Cc1cc2c(c(C#N)n1)-c1cc(F)ccc1CC(=O)N2CC(=O)Nc1ccc(C(F)(F)F)cc1` [#127, 2-(1-cyano-10-fluoro-3-methyl-6-oxo-7H-pyrido[4,3-d][3]benzazepin-5-yl)-N-[4-(trifluoromethyl)phenyl]acetamide], the figures for the IC50 on system Xc^− [1] and at system Xc^− [2] were under 15.8 nM and 39.8 to 100 nM, respectively.
For `CC1C(=O)N(CC(=O)Nc2ccc(Cl)c(F)c2)c2cc(F)cc(F)c2-c2cncnc21` (single isomer, unassigned) [#372, N-(4-chloro-3-fluoro-phenyl)-2-[9,11-difluoro-5-methyl-6-oxo-5H-pyrimido[4,5-d][1]benzazepin-7-yl]acetamide], the figures for the IC50 at system Xc^− [1] and at system Xc^− [2] were 15.8 to 39.8 nM and under 15.8 nM, respectively.
For `Cc1cc2c(c(F)n1)-c1cccnc1[C@@H](O)C(=O)N2CC(=O)Nc1ccc(C(F)(F)F)cc1` (single isomer, unassigned) [#211, Enantiomer (10S) or (10R) of 2-[3-fluoro-10-hydroxy-5-methyl-9-oxo-4,8,12-triazatricyclo[9.4.0.0^2,7]pentadeca-1(11),2(7),3,5,12,14-hexaen-8-yl]-N-[4-(trifluoromethyl)phenyl]acetamide] the same measures were 15.8 to 39.8 nM and under 15.8 nM.
For `Cc1cc2c(c(F)n1)-c1cccnc1C(O)C(=O)N2CC(=O)Nc1ccc(C(F)(F)F)cc1` (centres unmarked) [#94, 2-(3-fluoro-10-hydroxy-5-methyl-9-oxo-4,8,12-triazatricyclo[9.4.0.0^2,7]pentadeca-1(15),2(7),3,5,11,13-hexaen-8-yl)-N-[4-(trifluoromethyl)phenyl]acetamide], the IC50 at system Xc^− [1] and on system Xc^− [2] was 39.8 to 100 nM throughout.
Take `CC1C(=O)N(CC(=O)Nc2ccc(C(F)F)cc2)c2cc(C3(F)CC3)oc(=O)c2-c2cccnc21` (single isomer, unassigned) [#365, N-[4-(difluoromethyl)phenyl]-2-[5-(1-fluorocyclopropyl)-10-methyl-3,9-dioxo-4-oxa-8,12-diazatricyclo[9.4.0.0^2,7]pentadeca-1(15),2(7),5,11,13-pentaen-8-yl]acetamide]: the IC50 at system Xc^− [1] was 15.8 to 39.8 nM; at system Xc^− [2], under 15.8 nM.
On to `Cc1cc2c(c(F)n1)-c1cncnc1C(C)C(=O)N2CC(=O)Nc1ccc(Cl)c(F)c1` (single isomer, unassigned) [#217, Enantiomer (8S) or (8R) of N-(4-chloro-3-fluoro-phenyl)-2-[15-fluoro-8,13-dimethyl-9-oxo-4,6,10,14-tetrazatricyclo[9.4.0.0^2,7]pentadeca-1(15),2,4,6,11,13-hexaen-10-yl]acetamide], for which the IC50 at system Xc^− [1] and on system Xc^− [2] was under 15.8 nM throughout.
In the case of `Cc1cc(F)c2c(c1)N(CC(=O)Nc1ccc(C(F)F)cc1)C(=O)C(C)c1ncncc1-2` (centres unmarked) [#370, N-[4-(difluoromethyl)phenyl]-2-(11-fluoro-5,9-dimethyl-6-oxo-5H-pyrimido[4,5-d][1]benzazepin-7-yl)acetamide], the IC50 on system Xc^− [1] and at system Xc^− [2] was 39.8 to 100 nM each time.
For the molecule `Cc1cc2c(c(Cl)n1)-c1cccnc1C(C)C(=O)N2CC(=O)Nc1ccc(C(F)(F)F)cc1` (centres unmarked) [#114, 2-(3-chloro-5,10-dimethyl-9-oxo-4,8,12-triazatricyclo[9.4.0.0^2,7]pentadeca-1(11),2,4,6,12,14-hexaen-8-yl)-N-[4-(trifluoromethyl)phenyl]acetamide], the IC50 is under 15.8 nM on system Xc^− [1] and 15.8 to 39.8 nM on system Xc^− [2].
As to `Cc1cc2c(cn1)-c1ccnn1C(C)C(=O)N2CC(=O)Nc1ccc(Cl)c(F)c1` (single isomer, unassigned) [#186, enantiomer (7S) or (7R) of N-(4-chloro-3-fluoro-phenyl)-2-[7,12-dimethyl-8-oxo-5,6,9,13-tetrazatricyclo[8.4.0.0^2,6]tetradeca-1(10),2,4,11,13-pentaen-9-yl]acetamide], the IC50 at system Xc^− [1] is 39.8 to 100 nM; at system Xc^− [2], 15.8 to 39.8 nM.
For `Cc1cc2c(n(C)c1=O)-c1cccnc1C(C)C(=O)N2CC(=O)Nc1ccc(C(F)(F)F)cc1` (centres unmarked) [#119, N-[4-(trifluoromethyl)phenyl]-2-(3,5,10-trimethyl-4,9-dioxo-3,8,12-triazatricyclo[9.4.0.0^2,7]pentadeca-1(11),2(7),5,12,14-pentaen-8-yl)acetamide] the same measures were 15.8 to 39.8 nM and 15.8 to 39.8 nM.
As for `Cc1cc2c(c(F)n1)-c1cccc(=O)n1CC(=O)N2CC(=O)Nc1ccc(C(F)(F)F)cc1` [#102, 2-(3-fluoro-5-methyl-9,12-dioxo-4,8,11-triazatricyclo[9.4.0.0^2,7]pentadeca-1(15),2(7),3,5,13-pentaen-8-yl)-N-[4-(trifluoromethyl)phenyl]acetamide], the IC50 at system Xc^− [1] is 39.8 to 100 nM; on system Xc^− [2] it was 100 to 501 nM.
Take `CC1C(=O)N(CC(=O)Nc2ccc(Cl)c(F)c2)c2cc(F)cc(F)c2-c2cccnc21` (single isomer, unassigned) [#406, N-(4-chloro-3-fluoro-phenyl)-2-[9,11-difluoro-5-methyl-6-oxo-5H-pyrido[2,3-d][1]benzazepin-7-yl]acetamide]: the IC50 on system Xc^− [1] and at system Xc^− [2] was 15.8 to 39.8 nM each time.
For `Cc1cc2c(c(F)n1)-c1cccnc1[C@@H](C)C(=O)N2CC(=O)Nc1ccc(C(F)F)c(F)c1` (single isomer, unassigned) [#235], the IC50 at system Xc^− [1] and at system Xc^− [2] was under 15.8 nM throughout.
